PubChem BioAssay AID1324 (NMMLSC, 2008)
Calls of active or inactive are those of the source. The rule behind the calls is not given here.

Each molecule was assayed against glutathione S-transferase (GST-GSH binding) (assay: GST–glutathione interaction disruption – biochemical, multiplex beads, flow cytometry, HPSMTB buffer, profiling panel (AID 1324;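 note: glutathione beads loaded with GST-green fluorescent protein and no fluorescent Bim peptide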)). Conditions: multiplex bead flow cytometry, MCF.

Structure (SMILES) | EC50
CCN(CC)c1ccc(NC2=C(Cl)C(=O)c3ccccc3C2=O)cc1 | inactive
COc1cc(/C=N/Nc2nn3cnnc3c3ccccc23)ccc1O | 2360 nM
CN(/N=C/C=C/c1ccccc1)C1=NS(=O)(=O)c2ccccc21 | 2520 nM
CN(/N=C/c1ccncc1)C1=NS(=O)(=O)c2ccccc21 | 3160 nM
Cc1ccc(Nc2nc(-c3c(C)nc4ncccn34)cs2)cc1 | inactive
O=[N+]([O-])c1ccc(N/N=C/c2ccc(O)c(O)c2O)c(S(=O)(=O)N2CCOCC2)c1 | inactive
c1ccc(Nc2cccc(Nc3ccccc3)n2)cc1 | inactive
O=C(Nc1ccc2nc(-c3ccco3)c(-c3ccco3)nc2c1)N1CCCCCC1 | inactive

Same assay, conditions: multiplex bead flow cytometry, MCF, hits give high values, concentration not given here

Structure (SMILES) | percent span inhibition
Cn1c(N)c(C(=O)COC(=O)c2cc(-c3ccco3)nc3ccccc23)c(=O)n(C)c1=O | inactive
O=C1Nc2ccc([N+](=O)[O-])cc2OC1CCN1CCN(Cc2ccc3c(c2)OCO3)CC1 (configuration not stated) | inactive
CCN1/C(=C\c2ccc3cc(C)ccc3[n+]2CC)Sc2cc(C)c(C)cc21 | inactive
CC(C(=O)Nc1cc([N+](=O)[O-])ccc1Cl)N1CCN(c2ccc(O)cc2)CC1 (configuration not stated) | inactive
Cc1ccc(NN2C(=O)C=CC2=O)cc1 | inactive
O=C(c1cc(=O)c2ccccc2o1)N1CCN(c2ccccc2F)CC1 | inactive
Cn1c(=O)[nH]c(=O)c2c1nc(N1CCOCC1)n2CCSc1nc2ccccc2[nH]1 | inactive
O=C(/C=C/c1ccc(-c2ccccc2[N+](=O)[O-])o1)c1ccc(F)cc1 | inactive
COP(=O)(CC(=O)O)c1ccccc1 (configuration not stated) | inactive
OCCC1CN(Cc2ccc3ncccc3c2)CCN1Cc1ccccc1 (configuration not stated) | inactive
Cc1nnc(NCc2n[nH]c(=O)c3ccccc23)c2ccccc12 | inactive
c1ccc(-c2nc(N3CCCCC3)nc3ccccc23)cc1 | inactive
Cc1csc(SCCn2c(N3CCN(c4ccccc4)CC3)nc3c2c(=O)[nH]c(=O)n3C)n1 | inactive
CC(C)COC(=O)/C(C#N)=C/c1cn(Cc2ccccc2)c2ccccc12 | inactive
O=C(NCc1ccccc1)C(=O)Nc1nc(C23CC4CC(CC(C4)C2)C3)cs1 | inactive
COc1ccc(NC(=O)c2cccs2)cc1 | inactive
CCOc1ncccc1C(=O)OC(C)C(=O)Nc1ccc(CC)cc1 (configuration not stated) | inactive
C=CCn1c(SCC(=O)Nc2ccc3c(c2)OCO3)nnc1-c1cc(Br)ccc1O | inactive
COCCNC(=S)Nc1cc(OC)c(OC)cc1C#N | inactive
O=C1c2ccccc2C(=O)c2cc(S(=O)(=O)Nc3ccccc3)ccc21 | inactive
COc1ccc(NS(=O)(=O)c2cc(NC(=O)c3ccc(C)o3)ccc2N2CCCCC2)cc1 | inactive
O=C(CCl)Nc1cccc2ncccc12 | inactive

Structure (SMILES) | percent span inhibition
Cc1onc(-c2ccccc2)c1C(=O)Nc1nnc(COc2ccc(Cl)cc2)s1 | inactive
Cc1c(NC2=C(Cl)C(=O)N(c3ccccc3Cl)C2=O)c(=O)n(-c2ccccc2)n1C | inactive
CCOC(=O)C1=C(Cc2ccc(C)cc2)C(=O)c2ccccc2C1=O | inactive
Cc1ccc(CNc2ccc3c(c2)OCO3)c(C)c1 | inactive
COc1ccc(NC(=O)c2ccco2)cc1NC(=O)c1ccco1 | inactive
COc1cc(/C=C2/NC(=O)N(Cc3ccccc3F)C2=O)ccc1O | inactive
CCOC(=O)N1CCC(c2cc(=O)n(-c3ccccc3)[nH]2)CC1 | inactive
O=c1[nH]c(SCc2nc3ccccc3c(=O)n2-c2ccccc2C(F)(F)F)nc2ccccc12 | inactive
COc1ccc(C2C(C#N)=C(C)NC3=C2S(=O)(=O)c2ccccc23)cc1 (configuration not stated) | inactive
CC(=O)N1CCN(C(=O)c2ccc(-n3c(C)ccc3C)cc2)CC1 | inactive
O=C(Nc1ccc(N2CCOCC2)cc1)Nc1ccc2nc(-c3ccco3)c(-c3ccco3)nc2c1 | inactive
Cc1ccc(-c2nc3c(c(=O)[nH]c(=O)n3Cc3ccccc3)n2C)o1 | inactive
O=C(O)c1cccc(NC2=C(Cl)C(=O)c3ccccc3C2=O)c1 | inactive
c1ccc(-c2nc(N3CCCCCC3)c3ccccc3n2)nc1 | inactive
COc1ccc(OC)c(Nc2ccc(C(=O)O)cc2[N+](=O)[O-])c1 | inactive
OC(COc1ccc2cc(Br)ccc2c1)CN1CCOCC1 (configuration not stated) | inactive
O=C(Nc1n[nH]c(C(F)(F)F)n1)C1CC1 | inactive
COc1ccc(NC(=O)/C(C#N)=C/c2c(C)nn(-c3ccc(F)cc3)c2Cl)cc1Cl | inactive
Cc1cc(NC(=O)CCSc2ccccc2)ccc1Br | inactive
CN=C(NC1CCCCC1)c1ccc(Cl)cc1 | inactive
Cc1ccc(/C=C/C2=Cc3c(sc(NC(=O)CSc4n[nH]c(N)n4)c3C#N)C(C)(C)C2)o1 | inactive
CCc1nnc(NS(=O)(=O)c2ccc(N=CC3=C(O)CC(C)(C)CC3=O)cc2)s1 | inactive

Structure (SMILES) | percent span inhibition
Cc1[nH]c2ccccc2c1C(=O)COC(=O)c1c(-c2c(F)cccc2Cl)noc1C | inactive
Cc1cccc(OCC(=O)NCC(=O)N/N=C/c2cc(Br)ccc2OCc2ccccc2)c1 | inactive
Cc1ccc(/C=N/N(C)C2=NS(=O)(=O)c3ccccc32)o1 | inactive
C=CCSc1nc(N)c2c(C)c(C)sc2n1 | inactive
C#CCn1cc(C=C2C(=O)c3ccccc3C2=O)c2ccccc21 | inactive
Cn1c(CCNC(=O)C2CCCCC2)nc2cc(NC(=O)c3cccs3)ccc21 | inactive
Cc1ccc(NC2=C(Cl)C(=O)c3ccccc3C2=O)cc1 | inactive
Cc1c(Cc2ccccc2)sc(N)c1C(N)=O | inactive
NC(=O)CSc1nnc(Cn2cnc3ccccc32)o1 | inactive
Cc1cc(C)nc(SCc2cc(=O)c(OC(=O)c3cccc([N+](=O)[O-])c3)co2)n1 | inactive
CNc1ccc(Br)cc(C(=O)/C=C/c2ccc(OC)cc2)c1=O | inactive
Cc1ccc(N=c2ssnc2Cl)cc1 | inactive
Cc1sc2nc(C(C)C)nc(SCC(=O)N3c4ccccc4CC3C)c2c1C (configuration not stated) | inactive
Cc1cc(C)nc(/N=C(\N)N2CCc3ccccc32)n1 | inactive
Cc1ccc(S(=O)(=O)N2CCCCC2)cc1NC(=O)COC(=O)c1ccccc1F | inactive
Fc1cccc(Nc2nc(-c3ccncc3)nc3ccccc23)c1 | inactive
CCC(=O)OCCNc1cc(Sc2nc3ccccc3[nH]2)c2nonc2c1[N+](=O)[O-] | inactive
O=C(COc1ccc(Br)cc1CNC1CCCCC1)NCCc1ccccc1 | inactive
O=C(O)c1ccc(NS(=O)(=O)c2ccc3c(c2)C(=O)c2ccccc2C3=O)cc1 | inactive
CCCCCCn1nc(C(=O)Nc2nc3c(s2)CCCC3)c2ccccc2c1=O | inactive
